From US9395375B2, “Method of treating sigma 1 receptor-expressing tumors with interleukin 24” (Research Foundation of the City University of New York, priority 2013, dated 2016) come the findings set out here.

For data set [1], the system named is metastatic prostate cancer cell lines (LNCaP, DU145 and PC-3). In words: AnnexinV-FITC/PI apoptosis assay after Ad.IL-24 infection with or without S1R agonist. The format is cell-based, human. The settings on record: for apoptosis by Ad.IL-24 (summary statements): prostate cancer cells, effect of S1R agonist. The text has this:
(§1) Referring to FIG. 1A, FIG. 1B and FIG. 1C, to test this hypothesis Ad.IL-24 was used to treat normal human immortalized epithelial cells (RWPE1), and three metastatic prostate cancer cell lines (LNCaP, DU145 and PC-3) in the presence or absence of the specific S1R agonist, (+)SKF-10047, and measured cell viability and induction of apoptosis by MTT, clonogenic, and AnnexinV-FITC/PI assays. (+)SKF-10047 inhibited Ad.IL-24-mediated killing in PC-3, LNCaP and DU145 cells.
(§2) In FIG. 1A, cells were infected with 100 pfu/cell of Ad.vector or Ad.IL-24, and treated with or without 10 μM (+)-SKF10047—a S1R agonist. Cell viability was determined by MTT assay 4 days post-infection. MTT absorbance of untreated control cells was set at 1 to determine relative number of viable cells. […] In FIG. 1B, cells were incubated in the absence or presence of 10 μM (+)-SKF10047 after infection with Ad.IL-24. Forty-eight hours post-infection, percentage of apoptosis was determined by staining with AnnexinV-FITC/PI. […] In FIG. 1C, cells were incubated in the absence or presence of 10 μM (+)-SKF10047 after infection with Ad.IL-24. Cells were subjected to clonogenic assay for 2 weeks. Results shown are an average of three independent experiments ±SD.
Annexin V binding assays. Cells were trypsinized, washed once with complete medium and PBS, resuspended in 0.5 ml of binding buffer containing 2.5 mmol/L CaCl2, and stained with allophycocyanin-labeled Annexin V (Becton Dickinson Biosciences, Palo Alto, Calif.) and propidium iodide (PI) for 15 min at room temperature. Flow cytometry assays were performed as described in Sauane M, Su Z Z, Dash R, et al. “Ceramide plays a prominent role in MDA-7/IL-24-induced cancer-specific apoptosis” J Cell Physiol. 2010 March; 222(3):546-55.

The test system is the same in data set [2]. In words: MTT cell viability assay after Ad.IL-24 infection with or without S1R agonist. The format is cell-based, human.
Source text: as §1
as §2, with “Cells were subjected to clonogenic assay for 2 weeks. Results shown are an average of three independent experiments ±SD.” left out
MTT Assays. […] Cell growth and viable cell numbers were monitored by 3-(4,5 dimethylthiazol-2-yl)-2,5-diphenyltetrazolium bromide (MTT) staining as described in Sauane M, Su Z Z, Dash R, et al. “Ceramide plays a prominent role in MDA-7/IL-24-induced cancer-specific apoptosis” J Cell Physiol. […]
(In general: Formazan colour is commonly taken as a measure of viable cells.)

A further data set has as its system prostate DU145. In words: Calcium imaging (Fura-2), cytosolic calcium. The format is cell-based, human. The settings on record: Ad.IL-24 plus 10 μM (+)-SKF10047, 12 hours. As for the experimental part:
FIG. 2B depicts a ratio of calcium ratios for cells infected with 100 pfu/cell of Ad.vector or Ad.IL-24, and treated with or without 10 μM (+)-SKF10047. The ratios are the levels cytosolic calcium at T=0 and T=12 hours. A determination was made concerning whether Ad.IL-24 caused any changes in the cytosolic levels of Ca^++ in prostate cancer cells and if Ca^++ mobilization is S1R-dependent after Ad.IL-24 infection. Ad.IL-24 infection increased cytosolic Ca^++ levels in prostate DU145 within 12 hours. The increase in Ca^++ was blocked by S1R agonist (+)-SKF10047.
Calcium imaging. For Calcium (Ca^++) imaging, cells were plated in 35 mm glass bottom petri dishes (MatTek) and allowed to attach for 12 h prior to treatment(s). Inhibitors were added 4 h after infection with adenovirus. After 12 h, cells were then rinsed with a Ringer's solution maintained at 37° C. Cells were then incubated in Ringer's solution containing 0.5 μM Fura-2 tetra-acetoxymethyl ester (Fura-2) (Molecular Probes), 10% Pluronic F127 and 250 μm sulfinpyrazone (Sigma-Aldrich, Inc) for 40 min at 22° C. Fura-2 was excited by alternating 340 and 380 nm light and images were obtained every 50 ms as a measure of Ca^++ concentration. Background intensity was zero. […]

Data set [3] concerns metastatic prostate cancer cell lines (LNCaP, DU145 and PC-3). In words: Clonogenic (colony formation) assay after Ad.IL-24 infection with or without S1R agonist. The format is cell-based, human. The settings on record: Ad.IL-24 plus 10 μM (+)-SKF10047; 2 weeks.
Source text: as §1, §2
Colony formation assays. Cells were infected with 100 pfu/cell with Ad.vector or Ad.IL-24. The next day, 200 to 500 cells were seeded to determine colony-forming ability. […]

For a further data set, the system named is DU-145 cells. In words: Reactive oxygen species (ROS) generation, DCFH-DA fluorescence. The format is cell-based, human. The conditions noted are these: Ad.IL-24 plus 10 μM (+)SKF-10047 for 24 h. As for the experimental part:
Intracellular ROS levels were measured with 10 μM DCF-DA 30 min after treatments. The results are expressed as the mean±S.D. of three independent experiments. The time course of mitochondrial changes (ROS generation) were determined after treatment of DU145 cells with Ad.IL-24. Cells were infected with Ad.IL-24, collected at 24 h, and stained for ROS production with dichlorofluorescin diacetate (DCFH-DA). […] Taken together, the inhibition by an S1R agonist of IL-24-mediated ER stress, Ca^++ mobilization and ROS production, further strengthen the hypothesis that IL-24 action in cancer cells is mediated by an antagonistic effect of IL-24 on S1R.
Assessment of reactive oxygen species (ROS) generation. DU-145 cells were seeded in 96-well plates at a concentration of 1×10^4 cells/well and were infected with Ad.IL-24 for 12 h. The cell cultures were treated with 10 μM 2,7-dichloro-fluorescein diacetate (DCFH-DA; Sigma-Aldrich, St. Louis, Mo.) in PBS for 30 min After incubation, the media was discarded, and the cells were washed with PBS. The fluorescence intensity was determined using a fluorescence plate reader at 485 nm for excitation and 530 nm for emission.

The subject of data set [4] is BiP, CHOP, and p-eIF2a proteins. In words: Western blot analysis of ER stress markers. It counts as cell-based. The settings on record: 100 pfu/cell Ad.IL-24 plus 10 μM (+)-SKF10047; 48 h. The protocol:
Cells were infected with 100 pfu/cell of Ad.vector or Ad.IL-24, and treated with or without 10 μM (+)-SKF10047 (SKF) for indicated times. In FIG. 2A, changes in BiP, CHOP, and p-eIF2a proteins were evaluated by Western blot analysis 48 h after indicated treatments. […] Up-regulation by IL-24 of several ER stress markers is shown, including p-eIF2a, CHOP, and BiP, were inhibited by treatment with (+)SKF-10047.
Western Blot Analysis. Protein extracts were prepared with RIPA buffer containing a mixture of protease inhibitors as described in Sauane M, Su Z Z, Dash R, et al. “Ceramide plays a prominent role in MDA-7/IL-24-induced cancer-specific apoptosis” J Cell Physiol. 2010 March; 222(3):546-55. Fifty micrograms of protein was applied to a 12% SDS/PAGE and transferred to nitrocellulose membranes. The membranes were probed with polyclonal or monoclonal antibodies to IL-24, p-eIF2a, BiP, CHOP, Sigma 1 Receptor, and beta-actin.
A general note: Immunoblotting shows a protein as a band on a membrane.

The target in data set [5] is T1, S1R (Homo sapiens, UniProt Q99720).
T1 construct: DU-145 cells were infected with Ad.IL-24; endogenous in cells; host or cells: DU145 cells (ATCC), infected with Ad.IL-24 or Ad.vector
In words: Co-immunoprecipitation of S1R with IL-24. It counts as binding. The conditions noted are these: 100 pfu/cell Ad.IL-24, 48 hours. The protocol: In FIG. 3A, DU145 cells were infected with 100 pfu/cell of Ad.vector or Ad.IL-24 and immunoprecipitation analysis was done 48 hours later using S1R antibody.
In FIG. 3B, DU-145 cells were infected with 100 pfu/cell of Ad.vector or Ad.IL-24 and immunoprecipitation analysis was done 48 hours later using IL-24 antibody.
Co-immunoprecipitation of S1R with IL-24. Cells were infected with Ad.vector or Ad.IL-24. After 48 hours, protein was extracted from subconfluent cultures using lysis buffer (Pierce, Rockford, Ill.) containing 1 mM phenylmethlsulfonylfluoride (Sigma-Aldrich, Inc) and quantified using the BCA protein assay kit (Pierce, Rockford, Ill.). Antibodies were conjugated to Protein-G beads according, the Sigma Protein-G Immunoprecipitation Kit manufacturer's instructions (Sigma-Aldrich, Inc). Western blot analysis was done as described before using the following primary antibodies at 1:1,000 dilutions: anti-IL-24, and anti-S1R. Secondary antibodies specific for heavy chain of immunoglobulin G (IgG) were used as the light chain of IgG interfered with detection of IL-24 because of similar size.

In data set [6] the target is T1, S1R. In words: Immunofluorescence co-localization of IL-24 and S1R. The format is cell-based. The settings on record: DU145 cells infected with Ad.IL-24; 24 h; confocal immunofluorescence. As for the experimental part:
In FIG. 3A and FIG. 3B, comparative co-localization of IL-24 and S1R proteins was analyzed in DU145 cells after infection with the Ad.IL-24 virus. […] DU-145 cells were infected with Ad.IL-24. After 24 h, cells were fixed and IL-24 and S1R proteins were detected by immunofluorescence using anti-IL-24 and anti-S1R antibodies. The analysis of co-localization of IL-24 and S1R was performed using a DMI6000B inverted confocal microscope with TCS SP5 system (Leica Microsystems CMS). Without wishing to be bound to any particular theory, S1R is believed to interact with IL-24.
Immunofluorescence. Cells were seeded onto chamber slides (Falcon; BD Biosciences, San Jose, Calif.) and maintained in DMEM with 10% fetal bovine calf serum, 24 hours postinfection, cells were fixed with 2% paraformaldehyde, permeabilized by 0.1% Triton X-100, and then incubated with primary antibodies: IL-24, and S1R. Controls were incubated with only the secondary antibodies under the same experimental conditions.

T1 sequence (Q99720 whole entry): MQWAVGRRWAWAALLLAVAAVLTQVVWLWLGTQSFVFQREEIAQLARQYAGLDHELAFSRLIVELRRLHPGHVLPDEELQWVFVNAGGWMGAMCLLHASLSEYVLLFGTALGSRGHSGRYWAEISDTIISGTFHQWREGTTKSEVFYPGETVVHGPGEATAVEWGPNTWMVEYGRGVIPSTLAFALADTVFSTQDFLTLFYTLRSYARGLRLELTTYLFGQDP

Take (+)-SKF10047: in data set [1] (Ad.IL-24 plus 10 μM (+)-SKF10047, 48 hours post-infection), the “cytotoxic effect of Ad.IL-24, percentage of apoptosis by AnnexinV-FITC/PI (FIG. 1B)” value is “substantially negated”. The “apoptosis by Ad.IL-24 (summary statements)” value is “inhibits” in data set [1] and “blocks” in data set [1] (listed as (+) SK-10047). For the same molecule, in data set [2] (100 pfu/cell Ad.IL-24 plus 10 μM (+)-SKF10047, 4 days post-infection), the “cytotoxic effect of Ad.IL-24, cell viability by MTT (FIG. 1A)” value is listed as “substantially negated”. Moreover, in data set [2] (PC-3, LNCaP and DU145 cells, viability and apoptosis by MTT, clonogenic and AnnexinV-FITC/PI assays, effect of S1R agonist), the Ad.IL-24-mediated killing result was “inhibited”. Moreover, in the data set with prostate DU145, the “increase in Ca++ after Ad.IL-24 infection (FIG. 2B)” value was “blocked”. In addition, the “cytotoxic effect of Ad.IL-24, clonogenic assay (FIG. 1C)” value in data set [3] is given as “substantially negated”. In addition, the “Ad.IL-24 increased ROS (FIG. 2C)” value in the data set with DU-145 cells was “inhibited”. In addition, in data set [4], the “Up-regulation by IL-24 of ER stress markers p-eIF2a, CHOP, and BiP (FIG. 2A)” value was “inhibited”.

B1: IL-24: member of the IL-10 cytokine family, immunomodulatory cytokine generated from Ad.IL-24 infection (protein, UniProt Q13007 52-206, looked up)
Interleukin-24: QEFHFGPCQVKGVVPQKLWEAFWAVKDTMQAQDNITSARLLQQEVLQNVSDAESCYLVHTLLEFYLKTVFKNYHNRTVEVRTLKSFSTLANNFVLIVSQLQPSQENEMFSIRDSAHRRFLLFRRAFKQLDVEAALTKALGEVDILLTWMQKFYKL
With B1, the “interaction with S1R: immunoprecipitation using anti-S1R antibody, immunoblotting with anti-IL-24 antibody (FIG. 3A)” value with S1R [5] (DU145 cells) is “physical interaction”. Also, in the data set with S1R [5] (DU-145 cells), the “interaction with S1R: immunoprecipitation using anti-IL-24 antibody, probed with anti-S1R antibody (FIG. 3B)” value was “coimmunoprecipitated”. Also, the “co-localization with S1R” value with S1R [6] is “co-localized”.
